Test results taken from patent US20230167150A1, “CD33 LIGANDS SUITABLE FOR INCORPORATION INTO CARRIERS” (GLYCOMIMETICS, INC., priority 2020, published 2023).
pIC50: −log10 of the molar value.

Biological target: T1, CD33 (Homo sapiens, UniProt P20138)
T1 construct: purchased BioLegend 750106
Assay: CD33 activity competitive binding assay (ELISA)
Settings: immobilized CD33-Fc; competition with Neu5Acα2-3Galβ1-3GalNAc-PAA-biotin; streptavidin/horseradish peroxidase, TMB, absorbance 450 nm
Method: The assay to screen for and characterize glycomimetic ligands of CD33 is a competitive binding assay, which allows the determination of IC50 values. CD33-Fc (BioLegend catalog item 750106) was immobilized in 96 well microtiter plates by incubation at 4° C. overnight. To reduce non-specific binding, bovine serum albumin was added to each well and incubated at room temperature for 3 hours. The plate was washed and serial dilutions of the test compounds were added to the wells in the presence of biotinylated polyacrylamide conjugated with Neu5Acα2-3Galβ1-3GalNAc-PAA-biotin (GlycoTech catalog item 01-088). After incubation at room temperature for 2 hours and washing, streptavidin/horseradish peroxidase was added to each well and incubated at room temperature for 30 minutes followed by an additional wash.
To determine the amount of glycopolymer bound to the immobilized CD33, the peroxidase substrate […] tetramethylbenzidine (TMB) was added. After 5 minutes, the enzyme reaction was stopped by the addition of H3PO4, and the absorbance of light at a wavelength of 450 nm was determined. The concentration of test compound required to inhibit binding by 50% was determined and reported as the IC50 value.

T1 sequence (P20138 18-364): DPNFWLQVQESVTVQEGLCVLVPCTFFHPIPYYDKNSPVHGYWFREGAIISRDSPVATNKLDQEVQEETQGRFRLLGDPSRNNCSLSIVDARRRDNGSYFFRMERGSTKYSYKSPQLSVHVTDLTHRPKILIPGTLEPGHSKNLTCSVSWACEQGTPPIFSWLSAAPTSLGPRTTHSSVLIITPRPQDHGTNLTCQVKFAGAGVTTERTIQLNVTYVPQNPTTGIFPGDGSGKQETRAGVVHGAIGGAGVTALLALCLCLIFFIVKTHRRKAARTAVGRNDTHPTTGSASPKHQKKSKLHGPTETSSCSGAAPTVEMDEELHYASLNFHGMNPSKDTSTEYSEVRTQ

pIC50	Compound
4.27	Cc1cc(C(=O)NC[C@@H](O)[C@@H](O)C2O[C@@](OCCCN(Cc3ccccc3)C(=O)CCOCCOCCOCCOCCOCCOCCN=[N+]=[N-])(C(=O)O)CC(O)[C@H]2NC(=O)Cn2cc(C3CCCCC3)nn2)cc(C)c1O (some centres unmarked) [Compound 13]
4.57	Cc1cc(C(=O)NC[C@@H](O)[C@@H](O)C2O[C@@](OCCCN(CCc3ccccc3)C(=O)CCOCCOCCOCCOCCOCCOCCN=[N+]=[N-])(C(=O)O)CC(O)[C@H]2NC(=O)Cn2cc(C3CCCCC3)nn2)cc(C)c1O (some centres unmarked) [Compound 15]
